Consider one molecule from US4748172A, “3-bicyclicpyridinium-methyl cephalosporins” (Eli Lilly and Company, priority 1987, dated 1988).

Holding throughout (format): cell-based
The test system of one assay is Klebsiella X68. Description: Agar dilution MIC.
The test system of another assay is Pseudomonas X528. The experiment in a line: Agar dilution MIC. The following applies: strain X528. An excerpt:
(§1) The antibacterial activity of several representative compounds of the invention has been evaluated in standard in vitro agar dilution assays. The following Table presents typical minimum inhibitory concentrations (MIC's) in μg/ml for exemplary compounds when evaluated against typical Gram+and Gram-microorganism.
(§2) Agar Dilution MIC (μg/ml)

In a further assay the test system is Pseudomonas X239. Description: Agar dilution MIC. The following applies: strain X239.
From the text: as §1, §2

The next assay has as its system Staph. aureus V41. Description: Agar dilution MIC. The following applies: Staphylococcus aureus, strain V41.
The next assay deals with Staph. aureus X400. The experiment in a line: Agar dilution MIC. The following applies: Staphylococcus aureus.
The subject of a further assay is Staph. epi EPI1. Description: Agar dilution MIC. The following applies: strain EPI1.
In a further assay the test system is Strep. D 9960. The experiment in a line: Agar dilution MIC.
The next assay has as its system Staph. aureus S13E. Description: microbe, parasite or virus in culture. The following applies: Staphylococcus aureus.

≈ marks a conversion by molar mass, not a printed value.

Take `CO/N=C(\C(=O)N[C@@H]1C(=O)N2C(C(=O)[O-])=C(C[n+]3cccc4nc(N)sc43)CS[C@H]12)c1csc(N)n1` [Example 15, syn-7-[2-(2-aminothiazol-4-yl)-2-methoxyiminoacetamido]-3-(2-aminothiazolo[5,4-b]pyridinium-4-ylmethyl)-3-cephem-4-carboxylate]: the MIC in the assay with Klebsiella X68 is 4 µg/mL (≈ 7.32 µM); against Pseudomonas X528 it was 1 µg/mL (≈ 1.83 µM); in the assay on Pseudomonas X239, 2 µg/mL (≈ 3.66 µM); in the assay on Staph. aureus V41 it was 2 µg/mL (≈ 3.66 µM); against Staph. aureus X400 it was 32 µg/mL (≈ 58.5 µM); against Staph. epi EPI1, 2 µg/mL (≈ 3.66 µM). Also, the MIC in the assay with Strep. D 9960 was determined as 8 µg/mL (≈ 14.6 µM); against Staph. aureus S13E, 4 µg/mL (≈ 7.32 µM).
